Measured values published in US7297714B2, “Inhibitors of cathepsin S” (IRM LLC, priority 2003, dated 2007).
pKi: −log10 of the molar value.

Tests used:
Format in all cases: biochemical
[1] = molecular target: Cathepsin L (Homo sapiens, UniProt P07711); assay: Cathepsin L inhibition assay, selectivity for cathepsin S over cathepsin L; conditions: ratio of cathepsin L inhibition constant to cathepsin S inhibition constant
Method: The optimal substrate for cathepsin L, acetyl-histidine-lysine-phenylalanine-lysine-amino carbamoyl coumarin, was identified from screening a combinatorial library of fluorogenic peptide substrates (Harris, J. L., B. J. Backes, et al.; Proc Natl Acad Sci USA 2000, 97(14), 7754-9). Kinetic measurements are performed in a total reaction volume of 30 μl in 384-well microtiter plates. Cathepsin L, at a final concentration of 0.1 nM (active site), is incubated with the compounds at twelve varying concentrations in a buffer containing 100 mM NaAc (pH5.5), 1 mM EDTA, 100 mM NaCl, 0.01% Brij-35 for 20 minutes at room temperature. Control reactions in the absence of inhibitor are performed in replicates of 24. The reactions are initiated by adding the substrate, acetyl-histidine-lysine-phenylalanine-lysine-amino carbamoyl coumarin, to a final concentration of 20 μM. The rate of substrate hydrolysis is measured by monitoring the increase in fluorescence at an excitation wavelength of 380 nm and an emission wavelength of 450 nm that results from cleavage of the aniline bond in the substrate by the enzyme. The apparent inhibition constants for the compounds are determined from the enzyme progress curves (Kuzmic, P., K. C. Elrod, et al., Anal Biochem 2000, 286(1), 45-50) and are then used to calculate the inhibition constants for competitive inhibitors.
(§1) Selectivity for cathepsin S in the presence of cathepsin isozymes was determined by the ratio of the cathepsin isozyme inhibition constant of a compound of the present invention to the cathepsin S inhibition constant of the same compound. Preferred compounds of the present invention selective for cathepsin S have ratios of greater than 10. More preferred compounds of the present invention selective for cathepsin S have ratios of greater than 100. Most preferred compounds of the present invention selective for cathepsin S have ratios of greater than 1000.

[2] = molecular target: Cathepsin B (Homo sapiens, UniProt P07858); assay: Cathepsin B inhibition assay, selectivity for cathepsin S over cathepsin B; conditions: ratio of cathepsin B inhibition constant to cathepsin S inhibition constant
Method: The optimal substrate for cathepsin B, acetyl-histidine-proline-valine-lysine-amino carbamoyl coumarin, was identified from screening a combinatorial library of fluorogenic peptide substrates (Harris, J. L., B. J. Backes, et al., Proc Natl Acad Sci US A 2000, 97(14), 7754-9). Kinetic measurements are performed in a total reaction volume of 30 μl in 384-well microtiter plates. Cathepsin B, at a final concentration of 1.5 nM (active site), is incubated with the compounds at twelve varying concentrations in a buffer containing 100 mM NaAc (pH5.5), 1 mM EDTA, 100 mM NaCl, 0.01% Brij-35 for 20 minutes at room temperature. Control reactions in the absence of inhibitor are performed in replicates of 24. The reactions are initiated by adding the substrate, acetyl-histidine-proline-valine-lysine-amino carbamoyl coumarin, to a final concentration of 10 μM. The rate of substrate hydrolysis is measured by monitoring the increase in fluorescence at an excitation wavelength of 380 nm and an emission wavelength of 450 nm that results from cleavage of the aniline bond in the substrate by the enzyme. The apparent inhibition constants for the compounds are determined from the enzyme progress curves (Kuzmic, P., K. C. Elrod, et al., Anal Biochem 2000, 286(1), 45-50) and are then used to calculate the inhibition constants for competitive inhibitors.
as §1

[3] = molecular target: T1, Caspase 3 (Homo sapiens, UniProt P42574); assay: Inhibition Assay for Caspase 3; conditions: Caspase-3 inhibition constant; pH7.4; read-out: Ki Cas-3
T1 sequence (P42574 29-175 limits assumed): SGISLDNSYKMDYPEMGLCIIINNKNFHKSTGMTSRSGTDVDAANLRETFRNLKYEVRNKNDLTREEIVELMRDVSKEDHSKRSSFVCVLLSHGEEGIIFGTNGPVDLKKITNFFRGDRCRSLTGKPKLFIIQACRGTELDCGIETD
T1 sequence (P42574 176-277 limits assumed): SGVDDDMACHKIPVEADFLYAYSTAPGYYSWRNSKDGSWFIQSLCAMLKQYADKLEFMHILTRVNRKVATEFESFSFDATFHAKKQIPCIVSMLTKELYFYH
Method: The widely used substrate for caspase 3, acetyl-aspartate-glutamate-valine-aspartic acid-amino carbamoyl coumarin, was used. Kinetic measurements are performed in a total reaction volume of 30 μl in 384-well microtiter plates. Caspase 3, at a final concentration of 0.2-1 nM (active site), is incubated with the compounds at twelve varying concentrations in a buffer containing 20 mM Hepes (pH7.4), 1 mM EDTA, 100 mM NaCl, 0.1% CHAPS, 10% sucrose, 10 mM DTT for 20 minutes at room temperature. Control reactions in the absence of inhibitor are performed in replicates of 12. The reactions are initiated by adding the substrate to a final concentration of 2 μM. The rate of substrate hydrolysis is measured by monitoring the increase in fluorescence at an excitation wavelength of 380 nm and an emission wavelength of 450 nm that results from cleavage of the aniline bond in the substrate by the enzyme. The apparent inhibition constants for the compounds are determined from the enzyme progress curves (Kuzmic, Elrod et al. 2000) and are then used to calculate the inhibition constants for competitive inhibitors (Km=9.71 μM).

Sequence of Cathepsin L (P07711 114-333, species assumed): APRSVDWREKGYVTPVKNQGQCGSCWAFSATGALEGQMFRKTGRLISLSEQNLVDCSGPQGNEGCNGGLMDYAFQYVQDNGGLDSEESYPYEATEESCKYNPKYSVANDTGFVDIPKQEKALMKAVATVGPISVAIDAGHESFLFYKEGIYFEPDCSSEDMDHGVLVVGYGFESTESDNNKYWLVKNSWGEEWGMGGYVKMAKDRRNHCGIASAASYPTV

| Compound | Selectivity for Cat. S over Cat. L [1] | Selectivity for Cat. S over Cat. B [2] | pKi [3] |
| --- | --- | --- | --- |
| O=C1C[C@H](NC(=O)[C@H](CC2CCCC2)NC(=O)c2ccc(-c3cccc(F)c3)o2)C(O)O1 (stereo partly drawn) [Example 1, (3S)-(3-Cyclopentyl-(2S)-{[5-(3-fluoro-phenyl)-furan-2-carbonyl]-amino}-propionylamino)-4-oxo-butyric acid] | ++ (++, >100) | +++ (+++, >1000) | < 6.00 |
| O=C1C[C@H](NC(=O)[C@H](CC2CCCC2)NC(=O)N2CCOCC2)C(O)O1 (stereo partly drawn) [Example 2, (3S)-{3-Cyclopentyl-(2S)-[(morpholine-4-carbonyl)-amino]-propionylamino}-4-oxo-butyric acid] | ++ (++, >100) | +++ (+++, >1000) | < 5.00 |
| O=C1C[C@H](NC(=O)[C@H](CC2CCCCC2)OC(=O)N2CCOCC2)C(O)O1 (stereo partly drawn) [Example 3, (3S)-{3-cyclohexyl-(2S)-(morpholine-4-carbonyloxy)-propionylamino}-4-oxo-butyric acid] | + (+, >10) | +++ (+++, >1000) | < 5.00 |
| O=C[C@H](CC(=O)O)NC(=O)[C@@H](CC(=O)N1CCOCC1)CC1CCCC1 [Example 4, (3S)-[(2R)-Cyclopentylmethyl-4-morpholin-4-yl-4-oxo-butyrylamino]-4-oxo-butyric acid] | ++ (++, >100) | +++ (+++, >1000) | < 5.00 |
| O=C1C[C@H](NC(=O)O[C@@H](CC2CCCC2)Cn2cnc3cc(Cl)c(Cl)cc32)C(O)O1 (stereo partly drawn) [Example 5, (3S)-[(1S)-Cyclopentylmethyl-2-(5,6-dichloro-benzoimidazol-1-yl)-ethoxycarbonylamino]-4-oxo-butyric acid] | + (+, >10) | +++ (+++, >1000) | < 5.00 |
| O=C1C[C@H](NC(=O)[C@@H](CC(=O)N2CCOCC2)CC2CCCCC2)C(O)O1 (stereo partly drawn) [Example 6, (3S)-{(2R)-Cyclohexylmethyl-4-morpholin-4-yl-4-oxo-butyrylamino}-4-oxo-butyric acid] | ++ (++, >100) | +++ (+++, >1000) | < 5.00 |
| O=C1C[C@H](NC(=O)[C@H](CC2CCCCC2)NS(=O)(=O)c2cccc(OC(F)(F)F)c2)C(O)O1 (stereo partly drawn) [Example 7, (3S)-[3-Cyclohexyl-(2S)-(3-trifluoromethoxy-benzenesulfonylamino)-propionylamino]-4-oxo-butyric acid] | ++ (++, >100) | +++ (+++, >1000) | < 5.00 |
| O=C1C[C@H](NC(=O)[C@H](CC2CCCC2)NS(=O)(=O)c2cccc(OC(F)(F)F)c2)C(O)O1 (stereo partly drawn) [Example 8, (3S)-[3-Cyclopentyl-(2S)-(3-trifluoromethoxy-benzenesulfonylamino)-propionylamino]-4-oxo-butyric acid] | ++ (++, >100) | +++ (+++, >1000) | < 6.00 |
| CC(C)(C)C[C@H](OC(=O)N[C@H]1CC(=O)OC1O)C(=O)N1CCOCC1 (stereo partly drawn) [Example 9, (3S)-[3,3-Dimethyl-(1S)-(morpholine-4-carbonyl)-butoxycarbonylamino]-4-oxo-butyric acid] | ++ (++, >100) | ++ (++, >100) | < 4.00 |
| O=C1C[C@H](NC(=O)O[C@@H](CC2CCCCC2)C(=O)N2CCOCC2)C(O)O1 (stereo partly drawn) [Example 10, (3S)-[2-cyclohexyl-(1S)-(morpholin-4-carbonyl)-ethoxycarbonylamino]-4-oxo-butyric acid] | +++ (+++, >1000) | +++ (+++, >1000) | < 4.00 |
